Where “and” joins values, the source holds several entries; their conditions need not be identical. Equal values may be shown once. Calls of active or inactive are those of the source. The rule behind the calls is not given here. Where only a bound is given, the exact number is not on record here.

Test system in the first assay: not listed separately
The assay is described as follows: Confirmatory dose response, V. cholerae DH231 delta cqsS, luciferase light activation (AID 686931). Particulars: V. cholerae DH231 (delta cqsS) luciferase light production; at 35 µM (top of the series).
With `O=C(CC1CCCCC1)Nc1nnc(-c2ccc3c(c2)CCCC3)o1`, the activation is 0.843% (inactive).

The assay is the same for the next values; noted with them: V. cholerae DH231 (delta cqsS) luciferase light production; at 50 µM (top of the series).
For `CCCCCCCCCC(=O)C(O)CC` (configuration not stated), the activation is -0.408% (inactive).

The assay is the same for the next values; noted with them: V. cholerae DH231 (delta cqsS) luciferase light production; at 80 µM (top of the series).
For `O=C(Nc1nnc(-c2ccc(Cl)cc2)o1)C1CCCCC1`, the activation is -1.2% (inactive).

With `O=C(Nc1nnc(-c2ccc3c(c2)OCCO3)o1)C1CCCC1`, the activation was 8.16% (inactive).

With `O=C(CC1CCCCC1)Nc1nnc(-c2cccnc2)o1`, the activation is -0.959% (inactive).

Consider `O=C(Nc1nnc(-c2ccc3c(c2)CCCC3)o1)C1CCC1`, for which the activation is -0.346% (inactive).

For the compound `Cc1ccc2cc3c(NC(=O)c4ccoc4)nn(C)c3nc2c1`, the activation was 10.6% (inactive).

On to `CCC(C)(C)C(=O)Nc1nnc(-c2ccc3c(c2)OCCO3)o1`, for which the activation is 0.359% (inactive).

With `O=C(Nc1nnc(-c2cccc(Cl)c2)o1)C1CCCCC1`, the activation was 1.82% (inactive).

Still in this assay, the particulars now being: V. cholerae DH231 (delta cqsS) luciferase light production; at 100 µM (top of the series).
With `Cc1ccc2cc3c(NC(=O)c4cc5ccccc5o4)nn(C)c3nc2c1`, the activation was 0.496% (inactive).

`Cn1nc(NC(=O)c2ccco2)c2cc3ccc(C(C)(C)C)cc3nc21`: the activation is -1.04% (inactive).

Regarding `O=C(Nc1nnc(-c2ccc3c(c2)OCCO3)o1)C1CC1`, the activation was -0.326% (inactive).

For the compound `CC(C)c1ccc2cc3c(NC(=O)c4ccco4)nn(C)c3nc2c1`, the activation was 2.47% (inactive).

Regarding `CN1CCC(C(=O)Nc2nnc(-c3ccc4c(c3)OCCO4)o2)CC1`, the activation is 0.079% (inactive).

On to `O=C(Nc1nnc(-c2ccncc2)o1)C1CCC1`, for which the activation was 0.692% (inactive).

As to `O=C(Nc1nnc(C2CCCC2)o1)C1CCCCC1`, the activation was -0.731% (inactive).

In the case of `CC(C)(C)OC(=O)N1CCC(C(=O)Nc2nnc(-c3ccc4c(c3)OCCO4)o2)CC1`, the activation was 0.619% (inactive).

For the compound `O=C(Nc1nnc(-c2cccnc2)o1)C1CCC1`, the activation was 0.588% (inactive).

On to `Cn1ccc(NC(=O)c2ccco2)n1`, for which the activation is 0.502% (inactive).

With `COc1cccc(-c2nnc(NC(=O)C3CCCCC3)o2)c1`, the activation is 3.05% (inactive).

As for `O=C(Nc1nnc(-c2ccc3c(c2)OCCO3)o1)C1CCC1`, the activation was 0.218% (inactive).

On to `O=C(Nc1nnc(-c2ccccc2Cl)o1)C1CCCCC1`, for which the activation was 0.072% (inactive).

Consider `CCn1nnnc1NCc1ccc(C(C)C)cc1`, for which the activation was -0.577% (inactive).

Take `O=S(=O)(Nc1nnc(-c2ccc3c(c2)OCCO3)o1)c1ccc(Cl)cc1`: the activation was -1.11% (inactive).

On to `CN(C)/C=N/c1nnc(-c2ccc3c(c2)OCCO3)o1`, for which the activation is -0.521% (inactive).

As for `COc1ccc(S(=O)(=O)Nc2nnc(-c3ccc4c(c3)OCCO4)o2)cc1`, the activation was -1.4% (inactive).

On to `Cc1ccc2cc3c(NC(=O)Cc4ccco4)nn(C)c3nc2c1`, for which the activation is 13.6% (inactive).

Consider `O=C(Nc1nnc(-c2ccc3c(c2)OCCO3)o1)C(F)(F)c1ccccc1`, for which the activation was -1.19% (inactive).

On to `Cc1ccc2cc3c(NC(=O)c4ccc(C)o4)nn(C)c3nc2c1`, for which the activation was 0.174% (inactive).

On to `Cc1ccc2cc3c(NC(=O)c4ccccn4)nn(C)c3nc2c1`, for which the activation is 1.04% (inactive).

As for `COc1ccc(-c2nnc(NC(C)=O)o2)cc1`, the activation was 1.64% (inactive).

As for `CCCCCCCCCC(=O)[C@H](O)CC` (racemic), the activation was -0.642% (inactive).

Regarding `C(=N\c1nnc(-c2ccc3c(c2)OCCO3)o1)/c1ccccc1`, the activation is 0.573% (inactive).

`O=C(Cc1ccc(-c2ccccc2)cc1)NC1CCC1`: the activation was -0.546% (inactive).

`c1ccc(CNc2nnc(-c3ccc4c(c3)OCCO4)o2)cc1`: the activation was -0.54% (inactive).

The subject of another assay is V. cholerae DH231 (delta cqsS) luciferase light production. The description is as above.
Settings: not given
`O=C(Nc1nnc(-c2ccc3c(c2)OCCO3)o1)C1CCCCCC1`: the AC40 was 10.5 µM.

For the compound `O=C(Nc1nnc(-c2ccc3c(c2)OCCO3)o1)C1CCCCC1`, the AC40 is 4.54 µM and 1.67 µM.

Consider `Cc1cc2nc3c(cc2cc1F)c(NC(=O)c1ccco1)nn3C`, for which the AC40 was 21.7 µM.

Regarding `Cn1nc(NC(=O)c2ccco2)c2ccccc21`, the AC40 is 78.1 µM.

With `Cn1nc(NC(=O)c2ccco2)c2cc3ccccc3nc21`, the AC40 is 4.18 µM.

In the case of `Cn1nc(NC(=O)c2ccco2)c2cccnc21`, the AC40 is 20.4 µM.

As to `Cc1cc(F)cc2nc3c(cc12)c(NC(=O)c1ccco1)nn3C`, the AC40 was 70.7 µM.

`O=C(Nc1nnc(-c2cccnc2)o1)C1CCCCC1`: the AC40 was 88.1 µM.

As to `Cc1ccc2cc3c(NC(=O)c4cccs4)nn(C)c3nc2c1`, the AC40 is 75.3 µM.

Turning to `Cc1ccc2cc3c(NC(=O)C4CCCC4)nn(C)c3nc2c1`, the AC40 was 37.9 µM.

As to `Cc1ccc2cc3c(NC(=O)c4ccco4)nn(C)c3nc2c1`, the AC40 was 6.52 µM and 15.8 µM.

With `COc1ccccc1-c1nnc(NC(=O)C2CCCCC2)o1`, the AC40 was > 100 µM (inactive).

As for `Cc1cc2cc3c(NC(=O)c4ccco4)nn(C)c3nc2cc1C`, the AC40 was 22.2 µM.

With `CCc1ccc2cc3c(NC(=O)c4ccco4)nn(C)c3nc2c1`, the AC40 is 31 µM.

Turning to `COc1ccc2cc3c(NC(=O)c4ccco4)nn(C)c3nc2c1`, the AC40 is 1.83 µM.

Regarding `COc1ccc(-c2nnc(NC(=O)C3CCCCC3)o2)cc1`, the AC40 was > 100 µM (inactive).

Regarding `Cc1cc(F)c2cc3c(NC(=O)c4ccco4)nn(C)c3nc2c1`, the AC40 is 76.2 µM.

(Values after PubChem BioAssay AID686931 (Broad Institute, 2013).)
